Measurements reported in US5747462A, “Pharmaceutically active compounds and their use” (priority 1995, dated 1998).

Test: quantitative evaluation of intradermoplantar edema induced by lambda-carrageenan in guinea pigs (plethysmometer)
Conditions: for anti-inflammatory effect with respect to the carrageenan standard (S2): p<0.000, one way variance analysis and Tukey's multiple comparisons, at the experimental doses used
Method: This inoculation initiates an inflammatory process defined as the standard inflammatory constant of all the preclinical trials.
The comparative evaluation is performed by measuring with a plethysmometer the change in volume in milliliters of mercury and expressing the results in absolute volume (ml) and relative percentage (°/l or %) values versus the variable of time in hours (h).
The inflammatory response is induced by inoculating carrageenan into the animal's plantar pad, and the change in volume is measured with a plethysmometer in milliliters of mercury.
The technique employed is adapted to a biological model of guinea pigs, and evaluates the intensity of the edema as the increase or decrease in the proportion of relative inflamed volume. The equation which describes this variable is: postinoculation volume minus preinoculation control volume divided by preinoculation control volume.
The method of measurement is composed of three basic steps:
Measurement of the clinical parameter inflammation volume obtained on inoculating an inflammatory noxa. This procedure constitutes the inflammatory standard (inflammatory control).
Measurement of the change in the clinical parameter inflammation volume by applying to the inflammatory standard a drug recognized as anti-inflammatory reference substance (anti-inflammatory control).
Measurement of the change in the clinical parameter inflammation volume by applying to the inflammatory standard an anti-inflammatory composition and/or subcompositions (invention).
Standard (S2): 0.1 ml of the pharmaceutically acceptable injectable formulation containing 1% of lambda-carrageenan, prepared according to standard processes in sterile water for injections and administered via the intradermoplantar route. Single dose of carrageenan between 3.6 and 3.9 mg/kg animal body weight.
Reference substance (P1): 2.0 ml of the pharmaceutically acceptable injectable formulation containing 6.25% of acetylsalicylic acid (ASA), prepared according to standard processes in sterile water for injections and administered intraperitoneally. Single dose of ASA, between 418.1 and 490.2 mg/kg animal body weight.

Row | SMILES | % Inflammation (0 h, diclofenac sodium 94.8-105.8 mg/kg i.p. single dose) [%] | % Inflammation (1 h, diclofenac sodium 94.8-105.8 mg/kg i.p. single dose) [%] | % Inflammation (2 h, diclofenac sodium 94.8-105.8 mg/kg i.p. single dose) [%] | % Inflammation (5 h, diclofenac sodium 94.8-105.8 mg/kg i.p. single dose) [%] | % Inflammation (6 h, diclofenac sodium 94.8-105.8 mg/kg i.p. single dose) [%] | anti-inflammatory effect with respect to the carrageenan standard (S2) | % Inflammation (0 h, ASA 418.1-490.2 mg/kg i.p. single dose) [%] | % Inflammation (1 h, ASA 418.1-490.2 mg/kg i.p. single dose) [%] | % Inflammation (2 h, ASA 418.1-490.2 mg/kg i.p. single dose) [%] | % Inflammation (3 h, ASA 418.1-490.2 mg/kg i.p. single dose) [%] | % Inflammation (4 h, ASA 418.1-490.2 mg/kg i.p. single dose) [%] | % Inflammation (5 h, ASA 418.1-490.2 mg/kg i.p. single dose) [%] | % Inflammation (6 h, ASA 418.1-490.2 mg/kg i.p. single dose) [%] | % Inflammation (7 h, ASA 418.1-490.2 mg/kg i.p. single dose) [%]
1 | O=C(O)Cc1ccccc1Nc1c(Cl)cccc1Cl [DICLO (P2), diclofenac sodium] | 00.000 | 12.500 | 12.600 | 11.400 | 12.300 | significant anti-inflammatory effect | – | – | – | – | – | – | – | –
2 | CC(=O)Oc1ccccc1C(=O)O [ASA (P1), acetylsalicylic acid] | – | – | – | – | – | significant anti-inflammatory effect | 00.000 | 05.620 | 13.700 | 10.450 | 12.020 | 12.100 | 10.450 | 09.810
